Among the test systems are MDA-MB-435; NCI-H23 lung; OVCAR-5 ovarian; RPMI-8226 leukemia; SF-539 CNS; SK-MEL-2 melanoma; SK-MEL-5 melanoma; SNB-75 CNS; UO-31 renal; HCC-2998 colon.
Holding throughout (assay): inhibition of tumour cell growth, NCI panel, 48 h

Consider 14 compounds from PubChem BioAssay (NCI).

Several values for one entry are separate records, joined by “and”; a condition that tells them apart may be missing. Equal entries are not always repeated.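 96-well plates; 48 h exposure; 5 concentrations. Endpoints by linear interpolation between flanking doses. Not reached: highest tested concentration assigned. GI50 marks 50% less growth. At the TGI there is no net growth.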

Consider `COc1ccc2cc(-c3cc4c(oc3=O)-c3ccccc3OC4O)c(=O)oc2c1` (configuration not stated), for which the GI50 in the assay on MDA-MB-435 is 16.4 µM; with NCI-H23 lung it was 17.7 µM; with OVCAR-5 ovarian, 17.3 µM; with RPMI-8226 leukemia it was 13.4 µM; in the assay on SF-539 CNS, 15.2 µM; in the assay on SK-MEL-2 melanoma it was 15.6 µM. Further, the GI50 was 13.2 µM in the assay on SK-MEL-5 melanoma, 5.73 µM in the assay on SNB-75 CNS and 17.5 µM in the assay with UO-31 renal. The TGI in the assay on MDA-MB-435 worked out at 36 µM; in the assay with NCI-H23 lung, 33.4 µM; in the assay on OVCAR-5 ovarian, 31.3 µM; with RPMI-8226 leukemia it was 58.7 µM; with SF-539 CNS, 29.2 µM; in the assay with SK-MEL-2 melanoma, 31.4 µM. The TGI was 26.9 µM in the assay with SK-MEL-5 melanoma, 23.4 µM with SNB-75 CNS and 33.4 µM with UO-31 renal.
On to `O=C(O)c1cc(/C=C/c2cc(O)ccc2O)ccc1O`, for which the TGI with HCC-2998 colon, in the assay on MDA-MB-435, in the assay on NCI-H23 lung, in the assay with OVCAR-5 ovarian, in the assay on SF-539 CNS and in the assay with SK-MEL-2 melanoma was greater than 10 µM each time. The compound further registered a TGI in the assay on UO-31 renal greater than 10 µM.
For the compound `CNC(=O)OCc1c2ccncc2c(C)c2c1[nH]c1ccccc12`, the TGI in the assay on HCC-2998 colon was 1.08 µM; in the assay with MDA-MB-435, 1.58 µM; in the assay with NCI-H23 lung, 0.822 µM; in the assay with OVCAR-5 ovarian, 1.78 µM; in the assay with SF-539 CNS, 0.784 µM; in the assay on SK-MEL-2 melanoma, 0.548 µM. The TGI with SK-MEL-5 melanoma stood at 0.773 µM; in the assay with SNB-75 CNS, 1.17 µM; in the assay with UO-31 renal, 0.966 µM.
Turning to `COc1ccc(C(=O)c2cc(OC)c(OC)c(OC)c2)cc1/C=C/C(=O)c1ccc(OC)c(OC)c1`, the GI50 was 4.14 µM with HCC-2998 colon; 2.29 µM with MDA-MB-435; 4.13 µM in the assay with NCI-H23 lung; 3.67 µM with OVCAR-5 ovarian; 0.587 µM with RPMI-8226 leukemia; 3.08 µM in the assay with SF-539 CNS. Further, the GI50 with SNB-75 CNS was 3.86 µM. In addition, the TGI was greater than 100 µM with HCC-2998 colon; greater than 100 µM in the assay on MDA-MB-435; greater than 100 µM with NCI-H23 lung; greater than 100 µM with OVCAR-5 ovarian; 11.8 µM in the assay on RPMI-8226 leukemia; greater than 100 µM with SF-539 CNS. Besides, the TGI in the assay on SNB-75 CNS was greater than 100 µM.
As for `Cc1ccc(S(=O)(=O)N2CCSCCN(S(=O)(=O)c3ccc(C)cc3)CCN(S(=O)(=O)c3ccc(C)cc3)CC2)cc1`, the TGI was greater than 100 µM in the assay with HCC-2998 colon; greater than 100 µM with MDA-MB-435; greater than 100 µM in the assay with NCI-H23 lung; greater than 100 µM in the assay on OVCAR-5 ovarian; greater than 100 µM in the assay with RPMI-8226 leukemia; 56.8 µM in the assay on SF-539 CNS. In addition, the values for the TGI in the assay with SK-MEL-2 melanoma, with SK-MEL-5 melanoma and with UO-31 renal were 79.9 µM, greater than 100 µM and greater than 100 µM, respectively.
Turning to `CC1COc2c(N3CCN(C)CC3)c(F)cc3c(=O)c(C(=O)O)cn1c23` (configuration not stated), the GI50 was greater than 100 µM in the assay on MDA-MB-435; greater than 100 µM in the assay with NCI-H23 lung; 84.4 µM in the assay with OVCAR-5 ovarian; greater than 100 µM in the assay on RPMI-8226 leukemia; greater than 100 µM in the assay on SF-539 CNS; greater than 100 µM in the assay on SK-MEL-2 melanoma. Moreover, the values for the GI50 in the assay on SK-MEL-5 melanoma, in the assay on SNB-75 CNS and in the assay on UO-31 renal were greater than 100 µM, greater than 100 µM and 47.5 µM, respectively. The TGI with MDA-MB-435, in the assay on NCI-H23 lung, in the assay on OVCAR-5 ovarian, with RPMI-8226 leukemia, in the assay with SF-539 CNS and with SK-MEL-2 melanoma was greater than 100 µM throughout. In addition, the TGI in the assay with SK-MEL-5 melanoma, with SNB-75 CNS and with UO-31 renal was greater than 100 µM throughout.
As to `CC1=CC(=C(c2ccc(N)cc2)c2ccc(N)cc2)C=CC1=N`, the TGI in the assay on HCC-2998 colon is 2.21 µM and 16 µM and 18.9 µM; in the assay on MDA-MB-435 it was 10.2 µM and > 44.8 µM and 15.6 µM; in the assay with NCI-H23 lung, 4.97 µM and 16.2 µM and 16.4 µM; in the assay with OVCAR-5 ovarian, 14.4 µM and > 71.9 µM and > 100 µM; in the assay on SF-539 CNS, 8.36 µM and 9.18 µM and 16.9 µM; with SK-MEL-2 melanoma it was 7.73 µM and 12.2 µM and 5.84 µM. The TGI was 2.3 µM and 5.45 µM and 3.41 µM in the assay on SK-MEL-5 melanoma; 55.6 µM and 50.5 µM and 41.3 µM in the assay on UO-31 renal. The GI50 with MDA-MB-435 was 0.969 µM; with NCI-H23 lung it was 0.828 µM; in the assay with OVCAR-5 ovarian, 3.42 µM; with SF-539 CNS it was 0.632 µM and 2.32 µM; in the assay on SK-MEL-2 melanoma, 2.32 µM and 2.71 µM; in the assay on SK-MEL-5 melanoma it was 0.928 µM. Besides, the GI50 in the assay on SNB-75 CNS is 0.428 µM and 0.455 µM and 2.31 µM; with UO-31 renal, 9.52 µM and 14.9 µM.
For `NC(N)=N/N=C/c1c(-c2cc(Cl)sc2Cl)nc2sccn12`, the GI50 with HCC-2998 colon is 0.854 µM; in the assay with MDA-MB-435, 4.03 µM; with NCI-H23 lung it was 7.5 µM; in the assay on OVCAR-5 ovarian it was 0.956 µM; in the assay with RPMI-8226 leukemia, 0.744 µM; in the assay on SF-539 CNS, 0.969 µM. The values for the GI50 in the assay with SK-MEL-2 melanoma, in the assay on SK-MEL-5 melanoma and in the assay with UO-31 renal were 2.72 µM, 0.729 µM and 2 µM, respectively. Besides, the TGI was 1.56 µM in the assay with HCC-2998 colon; 15.1 µM in the assay on MDA-MB-435; 14.9 µM with NCI-H23 lung; 2.05 µM in the assay with OVCAR-5 ovarian; 1.61 µM in the assay with RPMI-8226 leukemia; 1.72 µM in the assay on SF-539 CNS. In addition, the values for the TGI in the assay with SK-MEL-2 melanoma, with SK-MEL-5 melanoma and in the assay with UO-31 renal were greater than 50 µM, 1.56 µM and greater than 50 µM, respectively.
Regarding `Nc1nc2c(s1)CCc1c-2c(Br)n(Cc2ccccc2)c1Br`, the GI50 in the assay with HCC-2998 colon was 18 µM; in the assay with MDA-MB-435 it was 8.57 µM; with NCI-H23 lung, 13.8 µM; in the assay with OVCAR-5 ovarian it was 19.8 µM; with SF-539 CNS, 15.4 µM; in the assay with SK-MEL-2 melanoma, 21.6 µM. The values for the GI50 in the assay on SK-MEL-5 melanoma, in the assay with SNB-75 CNS and in the assay on UO-31 renal were 14.3 µM, 14.5 µM and 1.8 µM, respectively. In addition, the TGI was determined as 33.7 µM in the assay with HCC-2998 colon; 30.7 µM in the assay with MDA-MB-435; 40.8 µM with NCI-H23 lung; 39.3 µM in the assay with OVCAR-5 ovarian; 29.2 µM in the assay with SF-539 CNS; 43.4 µM in the assay with SK-MEL-2 melanoma. The TGI in the assay on SK-MEL-5 melanoma is 30.2 µM; in the assay on SNB-75 CNS, 33.1 µM; with UO-31 renal, 4.41 µM.
As for `COc1cc(OC)c(/C=C\c2ccnc3ccccc23)c(OC)c1`, the TGI with HCC-2998 colon came to 23.9 µM; with MDA-MB-435, 1.78 µM; in the assay with NCI-H23 lung, 22.1 µM; in the assay with OVCAR-5 ovarian, 19.3 µM; with RPMI-8226 leukemia, 13 µM; in the assay on SF-539 CNS, 12.4 µM. Further, the figures for the TGI in the assay with SK-MEL-2 melanoma, in the assay on SK-MEL-5 melanoma and in the assay on UO-31 renal were 19.4 µM, 5.88 µM and 3.55 µM, respectively.
In the case of `Clc1ccc2c(c1)N(CCCN1CCCC1)c1ccccc1S2`, the GI50 in the assay on HCC-2998 colon was 4.41 µM; in the assay on MDA-MB-435, 1.92 µM; in the assay with NCI-H23 lung it was 10.2 µM; in the assay on OVCAR-5 ovarian, 12.7 µM; in the assay on RPMI-8226 leukemia, 7.4 µM; in the assay with SK-MEL-2 melanoma, 10.8 µM. Besides, the figures for the GI50 in the assay with SK-MEL-5 melanoma, in the assay with SNB-75 CNS and with UO-31 renal were 1.83 µM, 3.4 µM and 6.61 µM, respectively. Also, the TGI turned out to be 15.5 µM in the assay with HCC-2998 colon; 4.02 µM in the assay with MDA-MB-435; 24 µM with NCI-H23 lung; 28.3 µM in the assay on OVCAR-5 ovarian; 24.3 µM in the assay on RPMI-8226 leukemia; 23.9 µM in the assay on SK-MEL-2 melanoma. Besides, the TGI in the assay on SK-MEL-5 melanoma is 3.32 µM; in the assay with SNB-75 CNS, 16.4 µM; with UO-31 renal it was 20.7 µM.
`COc1ccc2c(CN3CCC(C(=O)O)CC3)cc3cc4c(cc3c2c1)OCO4`: the GI50 was 2.72 µM in the assay on HCC-2998 colon; 2.66 µM in the assay with MDA-MB-435; 2.53 µM in the assay with NCI-H23 lung; 2.55 µM with OVCAR-5 ovarian; 1.4 µM in the assay on RPMI-8226 leukemia; 3.38 µM in the assay on SF-539 CNS. Also, the GI50 is 1.48 µM in the assay with SK-MEL-2 melanoma, 1.62 µM in the assay on SK-MEL-5 melanoma and 2.41 µM in the assay with SNB-75 CNS. The TGI in the assay on HCC-2998 colon turned out to be 11 µM; with MDA-MB-435 it was 7.42 µM; in the assay on NCI-H23 lung, 8.9 µM; with OVCAR-5 ovarian it was 6.87 µM; in the assay with RPMI-8226 leukemia, 3.59 µM; with SF-539 CNS, 14 µM. The TGI with SK-MEL-2 melanoma turned out to be 3 µM; in the assay on SK-MEL-5 melanoma it was 3.14 µM; in the assay with SNB-75 CNS, 9.03 µM.
Regarding `CCN1C(=O)N(CC)C2Nn3c(s/c(=C\c4ccccc4Br)c3=O)=NC21` (configuration not stated), the GI50 was 2.4 µM in the assay on HCC-2998 colon; 2.7 µM in the assay on NCI-H23 lung; 2.01 µM with OVCAR-5 ovarian; 1.79 µM with RPMI-8226 leukemia; 0.889 µM with SF-539 CNS; 3.55 µM with SK-MEL-2 melanoma. Moreover, the GI50 in the assay on SK-MEL-5 melanoma was 1.71 µM; with SNB-75 CNS it was 0.797 µM; in the assay on UO-31 renal it was 2 µM. The TGI in the assay on NCI-H23 lung is greater than 100 µM; with OVCAR-5 ovarian, greater than 100 µM; with RPMI-8226 leukemia, 15.2 µM; in the assay with SF-539 CNS, 3.08 µM; in the assay on SK-MEL-2 melanoma, 25.6 µM; in the assay on SK-MEL-5 melanoma, 5.64 µM. The values for the TGI in the assay on SNB-75 CNS and with UO-31 renal were 8.3 µM and greater than 100 µM, respectively.
In the case of `COc1ccc2c(c1)[n+](=O)c(C(=O)c1ccco1)c(C(F)(F)F)n2[O-]`, the GI50 was 3.08 µM with MDA-MB-435; 2.02 µM in the assay on NCI-H23 lung; 3.51 µM in the assay on OVCAR-5 ovarian; 1.62 µM in the assay with RPMI-8226 leukemia; 3.41 µM in the assay with SF-539 CNS; 24 µM in the assay with SK-MEL-2 melanoma. In addition, the GI50 in the assay on SK-MEL-5 melanoma is 1.31 µM; in the assay on SNB-75 CNS, 3.83 µM; in the assay on UO-31 renal it was 0.387 µM. In addition, the TGI with MDA-MB-435 is 14.5 µM; in the assay with NCI-H23 lung, 5.05 µM; with OVCAR-5 ovarian, 22.3 µM; in the assay on RPMI-8226 leukemia, 22.1 µM; in the assay on SF-539 CNS, 15.6 µM; in the assay with SK-MEL-2 melanoma, greater than 100 µM. Further, the TGI with SK-MEL-5 melanoma came to 2.68 µM; in the assay with SNB-75 CNS, 25.6 µM; in the assay with UO-31 renal, 2.51 µM.
